Measurements reported in ChEMBL document CHEMBL1201862, “PubChem BioAssay data set” (2004).
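All cell lines were grown in 96-well plates and treated with compound for 48 hours. At the GI50, growth is halved.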 Active and inactive are the calls of the source. No stated cut-off is given here; in the data, active = GI50 up to about 1.1 µM and inactive = higher.

Columns and labels:
Test in all cases: DTP human tumour cell line panel, 48 h
[1] = test system: DLD-1
[2] = test system: DMS-114
[3] = test system: DMS-273
[4] = test system: HOP-18
[5] = test system: KM-20L2
[6] = test system: LXFL 529
[7] = test system: M19-MEL
[8] = test system: RXF 631
[9] = test system: XF498

Measured: GI50

Cc1cc(Cl)ccc1N1C(=O)C(=O)C(c2nc3ccccc3s2)/C(=N\NC(=O)c2ccccc2O)C1=O (stereo unspecified)
inactive: [1] > 100 µM | [2] > 100 µM | [3] > 100 µM | [4] > 100 µM | [5] > 100 µM | [6] > 100 µM | [7] > 100 µM | [8] > 100 µM

Cc1ccccc1/C=N/C12CC3CC(CC(C3)C1)C2
inactive: [1] > 100 µM | [2] > 100 µM | [3] > 100 µM | [4] > 100 µM | [5] > 100 µM | [6] > 100 µM | [7] > 100 µM | [8] > 100 µM

COC(=O)[C@@]12C(=O)CCC(=O)C1C1C(=CC2C)O[C@@H]2OC3(CCCCC3)O[C@H]12 (stereo partly specified)
inactive: [1] 58.3 µM | [2] 48 µM | [3] > 100 µM | [4] > 64.3 µM | [5] > 100 µM | [6] 44.5 µM | [7] 61.9 µM | [9] > 38.4 µM

CCCOC(=O)C1CCC(=O)N1C(=O)C(Cl)Cl (stereo unspecified)
inactive: [1] > 100 µM | [2] > 100 µM | [3] > 100 µM | [4] > 100 µM | [5] > 100 µM | [6] > 100 µM | [7] > 100 µM | [9] > 100 µM

CC(C)N(C(=O)C12C3C4C5(C#N)C3C1(I)C5C42I)C(C)C (stereo unspecified)
inactive: [1] > 92.7 µM | [2] > 42.5 µM | [3] > 57.7 µM | [4] 97.5 µM | [5] > 66.7 µM | [6] > 71.6 µM | [7] > 58.2 µM | [9] > 100 µM

Cc1nc2ccc(N)cc2nc1O
inactive: [1] > 100 µM | [3] > 100 µM | [5] > 100 µM | [6] > 100 µM | [7] > 100 µM | [8] > 100 µM

O=C(NCC(O)CNC(=O)C(F)(F)F)C(F)(F)F
inactive: [1] > 100 µM | [2] > 100 µM | [3] > 100 µM | [4] > 100 µM | [5] > 100 µM | [6] > 100 µM | [7] > 100 µM | [9] > 100 µM

O=C(O)CCC(N/C=C1/N=C(c2ccccc2)OC1=O)C(=O)O (stereo unspecified)
inactive: [1] > 100 µM | [2] > 100 µM | [3] > 100 µM | [4] 36.1 µM | [5] > 100 µM | [6] > 100 µM | [7] > 100 µM | [8] > 100 µM

CCOC(=O)C12C(C(=O)OC)=C(C)N(NC(=O)Nc3ccccc3)C1(N)N(NC(=O)Nc1ccccc1)C(C)=C2C(=O)OC (stereo unspecified)
inactive: [1] 41.5 µM | [2] 31.9 µM | [3] 27.7 µM | [4] 32.9 µM | [5] 20.5 µM | [6] 26.1 µM | [7] 18 µM | [9] 24.3 µM

COC(=O)C1(C)CCc2c(OC)ccc(OC)c2C1=O (stereo unspecified)
inactive: [1] > 100 µM | [2] > 100 µM | [3] > 100 µM | [6] > 100 µM | [7] > 100 µM | [8] > 100 µM | [9] > 100 µM

CC(=O)c1sc(-c2nc(C)c(C(=O)/C=C\c3ccc(/C=C\C(=O)c4sc(-c5nc(C)c(C(C)=O)s5)nc4C)cc3)s2)nc1C
inactive: [1] > 100 µM | [2] > 100 µM | [3] > 100 µM | [4] > 100 µM | [5] > 100 µM | [6] > 100 µM | [7] > 100 µM | [9] > 100 µM

Cc1ccc(N2C(=O)CS/C2=C(\C#N)c2nc3ccccc3[nH]2)cc1
inactive: [1] > 100 µM | [2] > 100 µM | [3] > 100 µM | [4] > 100 µM | [5] > 100 µM | [6] > 100 µM | [7] > 100 µM | [9] > 100 µM

COC(=O)C(C(=O)C(=O)Nc1ccc([N+](=O)[O-])cc1[N+](=O)[O-])c1nc2ccc(Cl)cc2nc1O (stereo unspecified)
inactive: [1] > 100 µM | [2] 72.4 µM | [3] > 100 µM | [4] 59.3 µM | [5] > 100 µM | [7] > 100 µM | [9] > 100 µM

Cc1ccccc1SC(/C=C/NNC1=NN=C(c2ccccc2)C(c2ccccc2)N1)c1ccccc1 (stereo unspecified)
inactive: [1] 37.5 µM | [2] 22.9 µM | [3] 35.7 µM | [5] 52 µM | [7] 26 µM | [9] 34.7 µM
